Patent publication US20070073056A1, “4-Substituted Pyrazoline Compounds, their Preparation and Use as Medicaments” (LABORATORIOS DEL DR. ESTEVE, S.A., priority 2005, published 2007)
Where a name gives a salt, the structure may show the parent alone.

What was measured:
[1] = biological target: recombinant human cannabinoid 1 receptor (CB1) (Homo sapiens, UniProt P21554); assay: [35S]GTPγS binding assay, antagonism to CB1-receptor (Pharmacological methods, part V); format: biochemical; details: compound at 1 μM against agonist WIN 55,212-2; 100% = effect of Rimonabant (1 μM); CHO membranes
Method: V. In vitro Determination of Antagonism to CB1-Receptor
Chinese hamster ovary (CHO) cells stably expressing recombinant human cannabinoid 1 receptor (CB1) were cultured in nutrient mixture Ham's F 12 supplemented with 10% heat-inactivated fetal bovine serum, 2 mM L-glutamine, 50 U/ml penicillin, 50 U/ml streptomycin and 0.5 mg/ml geneticin. In order to obtain cells, culture flasks were washed twice with phosphate buffered saline and scraped. Then, cells were collected by centrifugation (200×g, 10 min) and stored dry at −80° C. Cells were homogenized in ice-cold 20 mM HE PES, 10 mM EDTA (pH 7.5) and centrifuged at 40,000×g for 15 min at 4° C. The pellet was resuspended in 20 mM HEPES, 0.1 mM EDTA (pH 7.5) and centrifuged for 15 min at 4° C. The final pellet was resuspended in 20 mM HEPES, 0.1 mM EDTA (pH 7.5), and divided in aliquots and stored at −80° C. until use.
[^35S]GTPγS Binding Assay:
The reaction was performed in 96-well plates. […] The incubation was terminated by rapid filtration through Millipore Multiscreen glass fiber FB, and rinsed two-times with ice-cold assay buffer. Filter plates were dried and 30 μl of scintillation liquid was added. Radioactivity was determined using Wallac Microbeta Trilux. Each experiment was performed at least in duplicate.
The average of basal [35S]GTPγS binding was subtracted from all binding data.
The antagonism of the pyrazoline compounds of general formula I to the CB1-receptor was determined according to the method described in Pharmacological methods, part V (table 2).

CB1-receptor [2] = biological target: CB1-receptor (UniProt P20272); assay: binding of the pyrazoline compounds to CB1-receptors (Pharmacological Methods, Part I); parameters: other: 10^−7 M; other: 10^−8 M; species or system human or rat
How it was run: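 Rat cerebellum membranes (male Wistar), 100 μg protein, competed against 1 nM [3H]-CP 55,940 in 50 mM Tris-HCl, 5 mM MgCl2, 1 mM EDTA, 0.5% BSA, pH 7.4; 1 h at 30 °C. Non-specific binding with 10 μM HU-210; filtration and scintillation counting, triplicates, non-linear regression.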

CB1-receptor [3] = biological target: CB1-receptor (UniProt P20272); assay: as above; parameters: IC50; species or system human or rat; details: radioligand [3H]-CP55940, read-out: IC50
Method: I. In-vitro Determination of Affinity to CB1/CB2-Receptors
The in-vitro determination of the affinity of the inventive 4-substituted pyrazoline compounds to CB1/CB2-Rezeptors is carried out as described in the publication of Ruth A. Ross, Heather C. Brockie et al., “Agonist-inverse agonist characterisation at CB1 and CB2 cannabinoid receptors of L-759633, L759656 and AM630”, British Journal of Pharmacology, 126, 665-672, (1999), whereby the transfected human CB1 and CB2 receptors of Receptor Biology, Inc. are used. The radioligand used for both receptors is [^3H]-CP55940. The respective parts of the description is hereby incorporated by reference and forms part of the present disclosure.
Rat Cerebellum CB1 Binding
Binding affinity to CB1 receptor was evaluated according to a modification of the method described by Govaerts et al., Eur J Pharmac Sci 23, 233-243 (2004). The respective parts of the description is hereby incorporated by reference and forms part of the present disclosure.
Briefly, cerebellum from male wistar rats (250-300 g) were carefully dissected on ice and homogenates were prepared with Potter-Helveheim in a cold 50 mM Tris-HCl solution containing 5 mM MgCl2, 1 mM EDTA and 0.25 M sucrose, pH 7.4. The suspension was centrifuged at […] for 5 minutes. The supernatants were collected and centrifuged 50,000×g for 15 minutes. The resulting pellets were then resuspended in Tris-HCl buffer without sucrose, homogenized and incubated for 15 min at 37° C. in an orbital shaker bath and centrifuged again at 50,000×g for 15 min. Pellets were weighted, resuspended in Tris-HCl buffer without sucrose, homogenized with Ultraturrax at 13,500 rpm for 3×5 seconds and alicuoted in 0.9 ml volumes in Eppendorf tubes. Alicuotes were centrifuged at 20,800×g for 5 minutes, supernatants discarded and pellets were frozen at −80° C. until use. Total protein concentration was determined using the Bio-Rad Lowry method based kit. Competitive binding experiments were performed in presence of 1 nM [^3H]-CP 55,940 in siliconized glass tubes containing 100 μg protein/tube resuspended in 1 ml final volume of 50 mM Tris-HCl, 5 mM MgCl2, 1 mM EDTA, 0.5% (w/v) bovine serum albumin, pH 7.4. Compounds were present at various concentrations and the non specific binding was determined in the presence of 10 μM HU-210. After 1 hour incubation at 30° C., the suspension was rapidly filtered through 0.5% PEI pre-treated GF/B fiber filters on a 96-well harvester and washed 3 times with 3 ml ice-cold binding buffer without bovine serum albumin. Radioactivity on filters was measured with Wallac Winspectral 1414 counter by liquid scintillation in 6 ml Ecoscint H (National Diagnostics, U.K.). Assays were made in triplicates.
Binding data were analyzed by non-linear regression with the software GraphPad Prism Version 3.03.
The binding of the pyrazoline compounds of general formula I to CB1-receptors was determined according to the method described in the section Pharmacological Methods, Part I.

Sequence of recombinant human cannabinoid 1 receptor (CB1) (P21554 whole entry): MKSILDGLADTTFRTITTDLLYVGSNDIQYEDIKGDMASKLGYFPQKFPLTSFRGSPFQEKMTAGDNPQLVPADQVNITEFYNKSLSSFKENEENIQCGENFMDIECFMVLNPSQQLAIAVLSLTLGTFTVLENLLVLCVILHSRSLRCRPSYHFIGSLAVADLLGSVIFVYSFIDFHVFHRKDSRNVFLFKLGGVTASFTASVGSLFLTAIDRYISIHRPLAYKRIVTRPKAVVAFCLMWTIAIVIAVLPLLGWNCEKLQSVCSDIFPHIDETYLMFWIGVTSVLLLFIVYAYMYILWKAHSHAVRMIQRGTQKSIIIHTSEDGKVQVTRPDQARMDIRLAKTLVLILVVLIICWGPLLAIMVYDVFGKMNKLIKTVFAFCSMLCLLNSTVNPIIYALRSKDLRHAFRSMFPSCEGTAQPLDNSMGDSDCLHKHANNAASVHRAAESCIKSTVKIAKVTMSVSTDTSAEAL

Row | Structure (SMILES) | Antagonism [1] [%] | Inhibition (CB1-receptor [2]; 10^−7 M) [%] | Inhibition (CB1-receptor [2]; 10^−8 M, in %) | IC50 (CB1-receptor [3]) [nM]
1 | C[C@H]1C(C(=O)O)=NN(c2ccc(Cl)cc2Cl)[C@H]1c1ccc(Cl)cc1 (racemic) [Example 19, cis-5-(4-Chloro-phenyl)-1-(2,4-dichloro-phenyl)-4-methyl-4,5-dihydro-1H-pyrazole-3-carboxylic acid] | −18 | −3.6 | −0.7 | –
2 | C[C@H]1C(C(=O)NN2CCCCC2)=NN(c2ccc(Cl)cc2Cl)[C@H]1c1ccc(Br)s1 (relative stereo) [Example 70, cis-5-(5-Bromo-thiophen-2-yl)-1-(2,4-dichloro-phenyl)-4-methyl-4,5-dihydro-1H-pyrazole-3-carboxylic acid piperidin-1-ylamide] | 81 | – | – | –
3 | COc1ccc([C@@H]2[C@H](C)C(C(=O)NN3CCc4ccccc43)=NN2c2ccc(Cl)cc2Cl)cc1 (relative stereo) [Example 279, cis-1-(2,4-dichlorophenyl)-N-(indolin-1-yl)-5-(4-methoxyphenyl)-4-methyl-4,5-dihydro-1H-pyrazole-3-carboxamide] | – | 62.4 | 14.7 | 19
4 | C[C@@H]1C(C(=O)NN2CCCCC2)=NN(c2ccc(Cl)cc2Cl)[C@@H]1c1ccccc1 (relative stereo) [Example 375, cis-1-(2,4-dichlorophenyl)-4-methyl-5-phenyl-N-(piperidin-1-yl)-4,5-dihydro-1H-pyrazole-3-carboxamide] | 58 | – | – | 140
5 | C[C@@H]1C(C(=O)NN2CCCCC2)=NN(c2ccc(Cl)cc2Cl)[C@H]1c1ccccc1 (relative stereo) [Example 376, trans-1-(2,4-dichlorophenyl)-4-methyl-5-phenyl-N-(piperidin-1-yl)-4,5-dihydro-1H-pyrazole-3-carboxamide] | 75 | – | – | 70.8
6 | C[C@H]1C(C(=S)NN2CCCCC2)=NN(c2ccc(Cl)cc2Cl)[C@H]1c1ccc(Cl)cc1 (relative stereo) [Example 379, cis-5-(4-chlorophenyl)-1-(2,4-dichlorophenyl)-4-methyl-N-(piperidin-1-yl)-4,5-dihydro-1H-pyrazole-3-carbothioamide hydrochloride] | – | 74.5 | 27.0 | 112
7 | COc1ccc([C@@H]2[C@H](C)C(C(=O)NN3CCCCC3)=NN2c2ccc(Cl)cc2Cl)cc1 (relative stereo) [Example 410, cis-1-(2,4-dichlorophenyl)-5-(4-methoxyphenyl)-4-methyl-N-(piperidin-1-yl)-4,5-dihydro-1H-pyrazole-3-carboxamide] | – | 58.1 | 42.4 | 82
8 | CCOC(=O)C1=NN(c2ccc(Cl)cc2Cl)[C@@H](c2ccc(Cl)cc2)[C@@H]1C(F)(F)F (relative stereo) [Example 416, trans-ethyl 5-(4-chlorophenyl)-1-(2,4-dichlorophenyl)-4-(trifluoromethyl)-4,5-dihydro-1H-pyrazole-3-carboxylate] | – | 93.5 | 41 | 182
9 | C[C@@H]1C(C(=O)NN2CCCCC2)=NN(c2ccc(Cl)cc2Cl)[C@@H]1c1ccc(Br)cc1.Cl (relative stereo) [Example 418, cis-5-(4-bromophenyl)-1-(2,4-dichlorophenyl)-4-methyl-N-(piperidin-1-yl)-4,5-dihydro-1H-pyrazole-3-carboxamide hydrochloride] | – | 62.6 | 19.9 | 36
10 | CC1CCCC(NC(=O)C2=NN(c3ccc(Cl)cc3Cl)[C@H](c3ccc(Cl)cc3)[C@@H]2C)C1 (relative stereo) [Example 423, cis-5-(4-chlorophenyl)-1-(2,4-dichlorophenyl)-4-methyl-N-(3-methylcyclohexyl)-4,5-dihydro-1H-pyrazole-3-carboxamide] | – | 66.7 | 33.1 | 45.5
11 | CC1CCCCC1NC(=O)C1=NN(c2ccc(Cl)cc2Cl)[C@H](c2ccc(Cl)cc2)[C@@H]1C (relative stereo) [Example 424, cis-5-(4-chlorophenyl)-1-(2,4-dichlorophenyl)-4-methyl-N-(2-methylcyclohexyl)-4,5-dihydro-1H-pyrazole-3-carboxamide] | – | 65.7 | 39.3 | 29.7
12 | C[C@@H]1C(C(=O)NN2CCCCC2)=NN(c2ccc(Cl)cc2Cl)[C@@H]1c1cccs1.Cl (relative stereo) [Example 430, cis-1-(2,4-dichlorophenyl)-4-methyl-N-(piperidin-1-yl)-5-(thiophen-2-yl)-4,5-dihydro-1H-pyrazole-3-carboxamide hydrochloride] | 23 | – | – | > 1000
13 | CC[C@@H]1C(C(=O)NN2CCCCC2)=NN(c2ccc(Cl)cc2Cl)[C@@H]1c1ccc(Cl)cc1 (relative stereo) [Example 432, cis-5-(4-chlorophenyl)-1-(2,4-dichlorophenyl)-4-ethyl-N-(piperidin-1-yl)-4,5-dihydro-1H-pyrazole-3-carboxamide] | 89 | – | – | 89
14 | C[C@@H]1C(C(=O)N[C@H]2CCCC[C@@H]2O)=NN(c2ccc(Cl)cc2Cl)[C@@H]1c1ccc(Cl)cc1 (single isomer, unassigned) [Example 129] | – | 72.3 | 11.6 | 69
15 | C[C@@H]1C(C(=O)NN2CCCCC2)=NN(c2ccc(Cl)cc2Cl)[C@@H]1c1ccc(Cl)cc1 (single isomer, unassigned) [Example 419, (−)-cis-5-(4-chlorophenyl)-1-(2,4-dichlorophenyl)-4-methyl-N-(piperidin-1-yl)-4,5-dihydro-1H-pyrazole-3-carboxamide] | – | 57.1 | 27.8 | 54.3
16 | C[C@H]1C(C(=O)NN2CCCCCC2)=NN(c2ccc(Cl)cc2Cl)[C@H]1c1ccc(F)cc1.Cl (stereo in doubt) [Example 227, cis-N-(azepan-1-yl)-1-(2,4-dichlorophenyl)-5-(4-fluorophenyl)-4-methyl-4,5-dihydro-1H-pyrazole-3-carboxamide hydrochloride] | – | 65.3 | 15.3 | 122
